{
  "source": "patent US10759831B2",
  "about": "“Peptide compound, production method therefor, and use thereof” (iNtRON Biotechnology, Inc., priority 2014, dated 2020)",
  "key": {"[1]": {"test_system": "RKO cells", "assay": "ROS production, DCFH-DA flow cytometry", "format": "cell-based, human", "conditions": "24 hours", "description": "In detail, as described in Example 2-3, Asperphenin B at the concentration of 2.5 μM, 5 μM, or 10 μM wad added to the RKO cells. Cells were collected after the RKO cells were cultured for 24 hours. In addition, a cell group in which 5 mM of N-acetylcysteine (NAC) (Sigma Aldrich), which is an antioxidant, was added to 5 μM and […] of Asperphenin B was prepared as a comparative group, whereas a cell group in which none of Asperphenin B and NAC was contained as a control.\nAfterwards, 2′,7′-dichlorofluorescin diacetate (DCFH-DA) (Sigma Aldrich) having a final concentration of 20 μM was added to the cell culture medium, and then, cultured at a temperature of 37° C. for 30 minutes under the condition of 5% CO2. Cells attached to the cell medium and cells not attached to the cell medium were all collected, washed with cold PBS twice, and then, suspended again in 1 ml of PBS to measure intensity of 2′,7′-dichlorofluorescin (DCF) by using a BD FACSCalibur flow cytrometer (manufactured by BD Biosciences)."}, "[2]": {"test_system": "cell cycle-related proteins in RKO cells", "assay": "Immunoblotting of cell cycle-related proteins", "format": "cell-based, human", "description": "As described in Example 2-3, cells were obtained in a way that Asperphenin B at the concentration of 0.625 μM, 1.25 μM, 2.5 μM, 5 μM, or 10 μM was added to the RKO cells, and then, cultured for 48 hours. However, cells were obtained in a way that Asperphenin B at the concentration of 5 μM was added to the RKO cells, and then, cultured for 0 to 48 hours. Then, proteins were obtained from the obtained cells.\nRegarding the expression of the cell cycle-related proteins, anti-p-cyclin B1(Ser147) antibody (Cell Signaling Technology), anti-cyclin B1 antibody (Santa Cruz), anti-p-cdc2(Tyr15) antibody (Cell Signaling Technology), anti-cdc2 antibody (Santa Cruz), and anti-β-actin antibody (Santa Cruz) were used to perform immunoblotting thereon."}, "[3]": {"test_system": "lung cancer cell line A549", "assay": "SRB cell viability assay, lung cancer cell line A549", "format": "cell-based", "conditions": "Homo sapiens; A549, 72 hours; read-out: Cell growth inhibition concentration (IC50)", "description": "Regarding a lung cancer cell line A549 (Korean Cell line Bank), a colon cancer cell line HCT116 (ATCC), a stomach cancer cell line SNU638 (Korean Cell Line Bank), a liver cancer cell line SK-HEP-1 (Korean Cell line Bank), and a breast cancer cell line MDA-MB-231 (Korean Cell line Bank), a sulforhodamine B (SRB) assay which is a method of measuring cell viability was used for measuring apoptosis effects of Asperphenin.\nIn detail, 190 μl of a cell suspension at a concentration of 3.5×10^4 cells/ml was inoculated in each well of a 96-well microplate. 0.8 μM, 4 μM, 20 μM, or 100 μM of Asperphenin was added to the cell culture medium, and cultured at a temperature of 37° C. for 72 hours under the condition of 5% CO2. After incubation, 50 μl of 50% (v/v) trichloroacetic acid solution (Sigma Aldrich) was added to each well, and then, incubated at a temperature of 4° C. for 30 minutes, to thereby fix the cells thereto. The fixed cells were washed with water five times, and then, dried in the air.\nNext, 80 μl of a 0.4% (w/v) SRB aqueous solution (Sigma Aldrich) containing 1% (v/v) acetic acid (DUKSAN) was added to each well, incubated at room temperature for 1 hour to stain cells therein, and the stained cells washed with water and dried. The cells were dissolved by adding 200 μl of 10 mM Tris (pH 10.0) (Sigma Aldrich) to each well, and then, the number of living cells was calculated by measuring the absorbance thereof at 515 nm. The concentration of the compound inhibiting cell growth to 50% based on the number of the living cells, i.e., 50% inhibition concentration (IC50) was calculated, and the results are shown in Table 3. Here, as a positive control, etoposide (Sigma Aldrich) was used."}},
  "data": [
    {"smiles": "CCCCCCCCC[C@@H](O)CC(=O)N[C@@H](CC(N)=O)C(=O)N[C@@H](CCC(N)=O)C(=O)N[C@H](CC(=O)c1cc(C)cc(O)c1C(=O)c1c(O)cccc1O)CC(C)C", "note": "[Asperphenin B]", "values": [
      {"measurement": "Production of ROS relative to the control", "setting": "[1]", "value": "about 2.4 times"},
      {"measurement": "Ratio of cells producing ROS", "setting": "[1]; 2.5 μM", "value": 8.14, "unit": "%"},
      {"measurement": "Ratio of cells producing ROS", "setting": "[1]; 5 μM", "value": 13.86, "unit": "%"},
      {"measurement": "Ratio of cells producing ROS", "setting": "[1]; 5 μM Asperphenin B + 5 mM NAC", "value": 1.41, "unit": "%"},
      {"measurement": "Ratio of cells producing ROS", "setting": "[1]; 10 μM", "value": 14.26, "unit": "%"},
      {"measurement": "Ratio of cells producing ROS", "setting": "[1]; 10 μM Asperphenin B + 5 mM NAC", "value": 2.55, "unit": "%"},
      {"measurement": "Expression of p-cdc2 (Tyr15) protein", "setting": "[2]; 5 μM, 0 to 48 hours, FIG. 5B", "value": "increased in time-dependent manner"},
      {"measurement": "Expression of p-cyclin B1 (Ser147)", "setting": "[2]; 5 μM, 0 to 48 hours, FIG. 5B", "value": "highest at about 24 hours"},
      {"measurement": "Expression of non-active p-cyclin B1 (Ser147) protein", "setting": "[2]; 48 hours, 2.5 μM, FIG. 5A", "value": "increased"},
      {"measurement": "Expression of p-cyclin B1 (Ser147) protein and cyclin B1 protein", "setting": "[2]; 48 hours, 5 μM and 10 μM, FIG. 5A", "value": "decreased"},
      {"measurement": "Expression of non-active p-cdc2 (Tyr15) protein", "setting": "[2]; 48 hours, 0.625-10 μM, FIG. 5A", "value": "increased in a concentration-dependent manner"},
      {"measurement": "IC50", "setting": "[3]", "value": 41.8, "unit": "µM"}
    ]}
  ]
}
